In experiment [1] the test system is intact CSQ mouse hearts. In words: Cardiac function in intact CSQ mouse heart preparation. As to the method: (§1) Following injection of heparin via tail vein (500 U/kg, iv) and anesthetization with nembutal (125 mg/kg for rats and 150 mg/kg for mice, ip) intraperitoneally, heart with all major vessels and lungs attached were excised. The aorta was then cannulated with a 20-gauge catheter, positioned about 2 mm above the coronary ostia. For the Langendorff method, a water-filled latex balloon (size #3) was inserted into the lumen of the left ventricle via the left atrium. The distal end of the balloon attached catheter was connected to a pressure transducer for measurement of intraventricular pressure and ±dP/dt. The balloon was inflated to a constantly held diastolic pressure of 5-7 mmHg. […]
(§2) For the working heart model, a column of KHS buffer produced a constant hydrostatic pressure of 65 mmHg (for rat) or 55 mmHg (for mice). […] Aortic flow was the amount of perfusate exiting the aortic cannula measured in […]. […]
(§3) The pressure recordings were channeled from amplifiers which had been pre-calibrated by a transducer simulator/calibrator (Ken Scientific Corp., Litchfield, Conn.). […] Data were analyzed by computer software (WorkBench for Windows+, Kent Scientific Corp) designed for an IBM-compatible computer (Dell). […] Data obtained with and without drug were analyzed by paired t test for possible statistically significant differences. […]

The test system of experiment [2] is intact WT mouse hearts. Kind of experiment: Cardiac function in intact WT mouse heart preparation. How it is done: as §1, §2, §3

SMILES strings stand for the structures.

For the compound `Nc1nc(Cl)nc2c1ncn2C1[C@H]2C[C@@]2(COP(=O)(O)O)[C@@H](O)[C@H]1O` (stereo partly drawn) [MRS2339, (1′S,2′R,3′S,4′R,5′S)-4-(6-amino-2-chloro-9H-purin-9-yl)-1-[phosphoryloxymethyl]bicyclo[3.1.0]hexane-2,3-diol], the “+dP/dt” value in experiment [1] and in experiment [2] was “increased” throughout.

(Values after US8410078B2, “Composition and methods to treat cardiac diseases” (University of Connecticut, priority 2006, dated 2013).)
